Assay results reported in US9512144B2, “Imidazothiazole sufonamides as nematicides” (BAYER CROPSCIENCE AKTIENGESELLSCHAFT, priority 2013, dated 2016).

The compounds below were run on Meloidogyne incognita (assay: Meloidogyne incognita test (MELGIN): sand, salad seeds, gall formation after 14 days). Conditions: application rate 20 ppm, salad seedlings in sand.
Assay type: in vivo
Protocol: Solvent: 125.0 parts by weight of acetone To produce a suitable preparation of active compound, 1 part by weight of active compound is mixed with the stated amount of solvent, and the concentrate is diluted with water to the desired concentration. Vessels are filled with sand, a solution of the active ingredient, a suspension containing eggs and larvae of the southern root-knot nematode (Meloidogyne incognita) and salad seeds. The salad seeds germinate and the seedlings grow. Galls develop in the roots. After 14 days the nematicidal activity is determined on the basis of the percentage of gall formation. 100% means that no galls were found; 0% means that the number of galls found on the roots of the treated plants was equal to that in untreated control plants.

| SMILES | nematicidal activity on the basis of the percentage of gall formation (100% = no galls) |
| --- | --- |
| Cc1ccc(Cl)cc1S(=O)(=O)NC(=O)c1cn2c(C)c(C(F)(F)F)sc2n1 [Example I-1-290] | 100% |
| O=C(NS(=O)(=O)c1cc(C(F)(F)F)ccc1Cl)c1cn2cc(Cl)sc2n1 [Example I-1-21] | 100% |
| CC(C)(C)c1cn2cc(C(=O)NS(=O)(=O)c3cc(Cl)ccc3Cl)nc2s1 [Example I-1-15] | 100% |
| O=C(NS(=O)(=O)c1c(F)cccc1F)c1cn2cc(Cl)sc2n1 [Example I-1-20] | 100% |
| O=C(NS(=O)(=O)c1cc(Cl)ccc1Cl)c1cn2c(C(F)(F)F)csc2n1 [Example I-1-31] | 100% |
| O=C(NS(=O)(=O)c1ccc(Cl)cc1Cl)c1cn2cc(C(F)(F)F)sc2n1 [Example I-1-279] | 90% |
| O=C(NS(=O)(=O)c1ccccc1Cl)c1nc2sc(C(F)(F)F)cn2c1Br [Example I-3-1] | 100% |
| COc1ccccc1S(=O)(=O)NC(=O)c1cn2cc(C(F)(F)C(F)(F)F)sc2n1 [Example I-1-248] | 100% |
| CSc1cn2cc(C(=O)NS(=O)(=O)c3c(Cl)cccc3Cl)nc2s1 [Example I-1-300] | 100% |
| COc1ccc(Cl)c(S(=O)(=O)NC(=O)c2cn3cc(Cl)sc3n2)c1 [Example I-1-19] | 100% |
| O=C(NS(=O)(=O)c1ccccc1-c1ccccc1)c1cn2cc(C(F)(F)C(F)(F)F)sc2n1 [Example I-1-235] | 100% |
| CSc1cn2cc(C(=O)NS(=O)(=O)c3cc(Cl)ccc3Cl)nc2s1 [Example I-1-297] | 90% |
| COc1ccc(Cl)c(S(=O)(=O)NC(=O)c2nc3sc(C(F)(F)F)cn3c2Br)c1 [Example I-3-2] | 100% |
| COc1ccc(Cl)c(S(=O)(=O)NC(=O)c2cn3cc(SC)sc3n2)c1 [Example I-1-299] | 90% |
| Cc1c(C(F)(F)C(F)(F)F)sc2nc(C(=O)NS(=O)(=O)c3cccc(Cl)c3)cn12 [Example I-1-250] | 90% |
| Cc1c(C(F)(F)F)sc2nc(C(=O)NS(=O)(=O)c3ccc(Cl)cc3)cn12 [Example I-1-156] | 90% |
| Cc1cc(S(=O)(=O)NC(=O)c2cn3cc(C(F)(F)F)sc3n2)c(C)cc1Br [Example I-1-14] | 100% |
| O=C(NS(=O)(=O)c1cc(Br)ccc1Br)c1cn2cc(C(F)(F)F)sc2n1 [Example I-1-312] | 100% |
| Cc1ccc(Cn2cccn2)cc1S(=O)(=O)NC(=O)c1cn2cc(C(F)(F)F)sc2n1 [Example I-1-288] | 90% |
| Cc1ccc(C)c(S(=O)(=O)NC(=O)c2cn3c(C(F)(F)F)csc3n2)c1 [Example I-1-270] | 100% |
| CSc1cn2cc(C(=O)NS(=O)(=O)c3cc(C(F)(F)F)ccc3Cl)nc2s1 [Example I-1-296] | 100% |
| O=C(NS(=O)(=O)c1ccc(Br)c(Cn2cccn2)c1)c1cn2cc(C(F)(F)F)sc2n1 [Example I-1-275] | 90% |
| Cc1ccc(Cn2cccn2)cc1S(=O)(=O)NC(=O)c1cn2cc(C(F)(F)C(F)(F)F)sc2n1 [Example I-1-295] | 90% |
